The values below come from patent publication US11445912B2, “Robust myocardial blood oxygen level dependent magnetic resonance imaging with long acting coronary vasodilators” (Cedars-Sinai Medical Center, priority 2015, dated 2022).

Where two headings read alike, the source gives them in different places.

For data set [1] the following is noted: cited from earlier work; for terminal half-life: extended vasodilatory state.
In data set [2] the test system is Canines. Nature of the data set: 13N-ammonia PET myocardial blood flow at rest and post regadenoson, PET/MR (Example 1). In kind it is in vivo. As to the method:
(§1) Canines (n=7) were studied in a PET/MR system. MR acquisitions were used to generate short-axis 2D T2 maps; and the PET acquisitions following ^[…]-ammonia infusion were used to quantify myocardial blood flow (MBF). Initially, 2D T2 maps and PET signals were acquired at rest. Subsequently, regadenoson (2.5 μg/kg) was administrated. T2 maps were acquired at 2- and 10-mins p.r.a and PET signals were acquired at 10-mins p.r.a. Standard deviation (a) of myocardial T2 values was measured at rest, 2- and 10-mins p.r.a from T2 maps and were used to determine Myocardial BOLD Variability (MBV, defined as σT2(stress)/σT2(rest)) at 2- and 10-min p.r.a. Similarly, using the mean T2 values, Myocardial BOLD Response (MBR, defined as T2(stress)/T2(rest)) was computed at 10-mins p.r.a. PET images were analyzed with qPET software to determine MBF and MPR at rest and 10-mins p.r.a and were regressed against MBR.

Data set [3] has as its system Canines. Nature of the data set: Myocardial BOLD CMR, 2D T2 maps post regadenoson (Example 1). In kind it is in vivo. As to the method: as §1
Data set [4] deals with healthy human volunteers. The data set is described as follows: Repeated BOLD CMR, coronary dynamic parameters from mono-exponential model (Example 2). Particulars: global myocardium. The class given is in vivo. How it is done:
(§2) BOLD images were acquired at different time points before and after regadenoson administration to sample the rest and stress images, respectively. After bolus regadenoson injection, multiple stress images were acquired to sample the coronary dynamics curve for 30 minutes. All stress images were registered to the rest images with a non-rigid motion correction algorithm (Avants B B, Tustison N J, Song G, Cook P A, Klein A, Gee J C. A reproducible evaluation of ANTs similarity metric performance in brain image registration. Neuroimage 2011; 54:2033-44) to correct for motion-induced miss match between acquisitions. Motion corrected images were used to extract the CDPs throughout the stress period using a mono-exponential model (Felmlee M A, Morris M E, Mager D E. Mechanism-based pharmacodynamic modeling. Methods in molecular biology 2012; 929:583-600) (T2(t)=T2o+ΔT2max exp(−t/τ)). A flow chart of the experimental setup is depicted in FIG. 4.
(§3) In healthy volunteers and intact dogs, global CDPs were extracted from the myocardium. Maximum BOLD response was derived with CDPs (MBRCDP=ΔT2max/T2o×100%) and compared with conventional myocardial BOLD response (MBRcon), which was derived as the T2 elevation from rest to 2 minutes after regadenoson administration (MBRconv=[(StressT2^2min/Rest T2)−1)×100%]. In the animals with coronary impairment, CDPs were measured in segmental and pixel-wise manner. Pixel-wised CDPs between remote and affected territories were segmented using SVMs to investigate the capability of separating diseased myocardium from the remote regions. In addition, CDPs were derived from subsets of BOLD images with different starting time points to probe the optimized setup of detecting affected territories. Details of each step are described in the following sections.
(§4) Experimental Subjects and animal preparation: We studied healthy human volunteers (n=6), intact dogs (n=7) and dogs with chronic infarctions (n=1). During imaging studies in animals, all animals were mechanically ventilated and anesthetized with propofol. In the dog with chronic infarction, the animal underwent an open chest ischemia reperfusion protocol (3 hours of ischemia followed by reperfusion), followed by 8-week recovery prior to imaging.
(§5) Image acquisition: Human studies were performed on a 3.0 T clinical MM system (MAGNETOM Verio®, Siemens Healthcare, Erlangen, Germany) and the animals were studied on a 3T whole body PET MR system (Biograph mMR, Siemens Healthcare, Erlangen, Germany). In all subjects, BOLD images were acquired with a commercially available 2D T2 mapping sequence {Giri, 2009 #820}. In all studies, after localization and shimming, rest BOLD images were acquired under baseline followed by a bolus regadenoson injection. Post regadenoson administration, BOLD CMR images were acquired between 2 to 30 minutes after regadenoson injection with an interval of 1-5 minutes depending on the physiological and imaging condition. In the animal with chronic infarction, simultaneous ^13N ammonia PET images were acquired at 2 minutes post regadenoson administration to validate the hyperemic response from regadenoson. In addition, LGE images were acquired to identify the infarcted territories after all BOLD acquisitions were completed. Block representations of imaging protocols are illustrated in FIG. 5. Imaging parameters are listed as the following: T2 mapping: TR/TE=2.9 ms/1.1 ms, iPAT=2, partial Fourier=3/4, FA=35°, BW=1184 Hz/pixel, 86 lines per heartbeat (simulated rate 60/s), trigger pulse=4, FOV=288×360 mm^2, matrix size=154×192, and voxel size=2.5×1.7×6.0 mm^3, T2 preparation (as TEs)=0, 24, 55 ms.
(§6) Image Processing: The series of BOLD images acquired post regadenoson administration were aligned using the advanced normalization tools (ANTS software). Rest images were used as the reference for registration. […]

Data set [5] concerns intact dogs. The data set is described as above. In kind it is in vivo. Particulars: global myocardium. How it is done:
as §2, §3, §4, §5, §6

The test system of data set [6] is dog with chronic infarction. Nature of the data set: Repeated BOLD CMR, coronary dynamic parameters in remote and affected myocardium (Example 2). In kind it is in vivo. As to the method:
as §2, §3, §4
Image acquisition: Human studies were performed on a 3.0 T clinical MM system (MAGNETOM Verio®, Siemens Healthcare, Erlangen, Germany) and the animals were studied on a 3T whole body PET MR system (Biograph mMR, Siemens Healthcare, Erlangen, Germany). In all subjects, BOLD images were acquired with a commercially available 2D T2 mapping sequence {Giri, 2009 #820}. In all studies, after localization and shimming, rest BOLD images were acquired under baseline followed by a bolus regadenoson injection. […]

Data set [7] has as its system dog with chronic infarction. The data set is described as follows: 13N ammonia PET myocardial perfusion reserve in infarcted animal (Example 2). In kind it is in vivo. Particulars: PET at 2 minutes post regadenoson. How it is done: as §5, with “Imaging parameters are listed as the following: T2 mapping: TR/TE=2.9 ms/1.1 ms, iPAT=2, partial Fourier=3/4, FA=35°, BW=1184 Hz/pixel, 86 lines per heartbeat (simulated rate 60/s), trigger pulse=4, FOV=288×360 mm^2, matrix size=154×192, and voxel size=2.5×1.7×6.0 mm^3, T2 preparation (as TEs)=0, 24, 55 ms.” left out
In addition, simultaneously acquired quantitative PET images were used to derive myocardial perfusion reserve (MPR) with a clinical validated software (QPET, Cedars-Sinai Medical Center, Los Angeles) and to validate the reduced MPR in the infarcted myocardium.

Data set [8] concerns intact dogs. Nature of the data set: Repeated BOLD CMR with coronary relaxation model (Example 3). In kind it is in vivo. How it is done:
(§7) Intact (n=7) and infarcted (n=2) dogs were studied in a hybrid PET/MR system. 2D BOLD (T2 maps), LGE and ^13N—NH3 PET images were acquired at rest and at post-regadenoson administration (p.r.a.). T2 maps post-regadenoson administration (p.r.a.) were repeatedly acquired over 30 mins and were registered to T2 maps at rest. These time-dependent T2 maps were then used to model the coronary relaxation as T2(t)=T2o+ΔT2max exp(−t/τ), where T2o, ΔT2max and τ are fit parameters with T2o=T2 at rest; ΔT2max=maximal T2 change from rest; and τ=time constant of coronary relaxation. Maximum BOLD response from CRM was estimated (MBRCRM=ΔT2max/T2o×100%) and compared to conventional myocardial BOLD response [MBRcon=(T2^2min−Rest T2)/Rest T2×100%, where T2^2min=myocardial T2 at 2 min p.r.a and Rest T2=T2 prior to regadenoson injection] using a regression model. In infarcted dogs, affected zones were identified using Late Gadolinium Enhancement (LGE). BOLD contrast-to-noise ratio (CNR) between remote and affected zones (CNR=(μMBRRemote−μMBRAffected)/σMBRRemote, where μ and σ are the mean and std dev) were estimated for MBRCRM and MBRcon and compared. MBRs were validated with perfusion reserve from PET myocardial perfusion reserve (MPR).

Data set [9] has as its system intact dogs. Nature of the data set: 13N-NH3 PET myocardial perfusion reserve (Example 3). Particulars: p.r.a. In kind it is in vivo. As to the method:
as §7

In data set [10] the test system is infarcted dogs. Nature of the data set: Repeated BOLD CMR with coronary relaxation model, remote vs affected zones (Example 3). The class given is in vivo. As to the method:
as §7

For data set [11], the system named is infarcted dogs. Nature of the data set: 13N-NH3 PET myocardial perfusion reserve, remote vs affected zones (Example 3). The class given is in vivo. As to the method: as §7
Where [12] appears, read: 10-min post regadenoson administration, 2.5 μg/kg.
[13] abbreviates: affected (infarcted) myocardium.

For the molecule `CCNC(=O)[C@H]1O[C@@H](n2cnc3c(N)nc(C#CC[C@H]4CC[C@H](C(=O)OC)CC4)nc32)[C@H](O)[C@@H]1O` [apadenoson], in [1], the terminal half-life is 5 min.

For the molecule `Nc1nc(N/N=C/C2CCCCC2)nc2c1ncn2[C@@H]1O[C@H](CO)[C@@H](O)[C@H]1O` [binodenoson], the terminal half-life in data set [1] is 10 to 120 min.

As for `OCCN(CCO)c1nc(N2CCCCC2)c2nc(N(CCO)CCO)nc(N3CCCCC3)c2n1` [dipyridamole], in data set [1] (units printed within the range), the terminal half-life was 40 to 600 min.

For `CNC(=O)c1cnn(-c2nc(N)c3ncn([C@@H]4O[C@H](CO)[C@@H](O)[C@H]4O)c3n2)c1` [regadenoson], in data set [2] (10-15 minutes post regadenoson infusion), the “myocardial blood flow relative to rest” value is recorded as “above 2 fold”. Also, the “myocardial blood flow (MBF)” value in data set [2] (setting [12]) came to 1.8 ± 0.9 mL/min/g. Moreover, the “Myocardial T2” value in data set [3] (setting [12]) is 40.4 ± 1.7 ms. In addition, the “T2 elevation relative to rest” value in data set [3] (10 min post regadenoson administration) is recorded as 9%. In addition, in data set [4], the “MBRCDP (ΔT2max/T2o×100%)” value is 26.5%, the “MBRcon (T2 elevation from rest to 2 minutes after regadenoson)” value amounted to 12.0%, the “ΔT2max (maximum BOLD stimulation amplitude)” value worked out at 14.7 ms and the “τ (coronary relaxation time constant)” value is reported as 35.6 min. In data set [5], the “MBRCDP (ΔT2max/T2o×100%)” value came to 25.8%, the “MBRcon (T2 elevation from rest to 2 minutes after regadenoson)” value is 10.1%, the “ΔT2max (maximum BOLD stimulation amplitude)” value was 8.6 ms and the “τ (coronary relaxation time constant)” value amounted to 38.5 min. For the same molecule, in [6] (Remote myocardium), the “coronary relaxation time constant (τ)” value was found to be 29.6 min and the “maximum T2 response (ΔT2max)” value is 5.4 ms. Moreover, in [6] (setting [13]), the “coronary relaxation time constant (τ)” value was 54.09 min and the “maximum T2 response (ΔT2max)” value was 1.6 ms. Also, the “myocardial perfusion reserve (MPR)” value in data set [7] (infarcted territories) is given as 1.9. The “myocardial perfusion reserve (MPR)” value in data set [7] (remote myocardium) is 3.7. The “MBRCRM (ΔT2max/T2o×100%)” value in [8] came to 27±16%. Also, the “MBRcon ((T2 2min−Rest T2)/Rest T2×100%)” value in [8] (2 min p.r.a) came out at 12±6%. In data set [8] (CRM fit), the “ΔT2max (maximal T2 change from rest)” value was 14.7 ± 5.8 ms and the “τ (time constant of coronary relaxation)” value was found to be 35.5 ± 26.8 min. In addition, the “PET myocardial perfusion reserve (MPR)” value in data set [9] is 3.0±0.6. Besides, in data set [10] (Affected region), the MBRCRM turned out to be 1±10% and the MBRcon was 5±7%. In [10] (Remote region), this molecule returned an MBRCRM of 27±6% and an MBRcon of 15±5%. The “MPRaffected (PET)” value in [11] (Affected region) was 1.9±0.7. Further, the “MPRremote (PET)” value in [11] (Remote region) is 3.7±0.6. For the same molecule, the terminal half-life in data set [1] was 33 to 108 min. Besides, the “second phase of pharmacological half-life” value in [1] (in vivo) is “approximately 30 minutes”.
